Laboratory results taken from patent publication US20150343016A1, “CHEMICAL ENTITIES AND THERAPEUTIC USES THEREOF” (The Regents of the University of Colorado, a body corporate, priority 2010, published 2015).
Like-named read-outs stand apart in the source and are kept apart here.

Legend:
Det562 cells = experiment: MTT assay, Bouvardin with ionizing radiation, Det562 (same-day treatment); format: cell-based, human
Protocol: “Combination Index” computation. Combination Indices were calculated using CalcuSyn software (Biosoft), which uses the method of Chou and Talalay. This method first computes drug-induced effect using the Hill Equation: where E is the measured effect; C is the drug concentration; Emax is the full range of drug effect, usually at or near 100%; IC50 is the drug concentration producing the median effect of 50%; and n is the curve shape parameter describing the steepness of the concentration-effect relationship. The Chou and Talalay method then linearizes the Hill Equation by logarithmic transformation as: where fu is the fraction of cells left unaffected after drug exposure, fa is the fraction of cells affected by the exposure, C is the drug concentration used, Cm is the concentration to achieve the median effect, and n is the curve shape parameter. Cm and n are equivalent to IC50 and n, respectively, in the Hill Equation. The values of n (obtained from the slope), nlog(Cm) (obtained from the absolute value of the intercept), and, therefore, Cm are obtained by plotting log(fu−1−1) versus log(C). These numbers are then used to compute the Combination Index (CI) according to the formula: CI=(D)1/(Dx)1+(D)2/(Dx)2 (26). (Dx)1 and (Dx)2 are the doses required to achieve a given effect level for each treatment, i.e. a specified value of Fraction Affected or Fa. (D)1 and (D)2 are the doses of each treatment in a given combination which gives the same Fa.
For FIG. 19 MTT assays were used to determine the effect of Bouvardin (concentrations in uM) in combination with ionizing radiation (in Gy). The data from same-day treatment of IR and Bouvardin are shown, for comparison with taxol-Bouvardin combination that were also applied on the same day. In general, CI values were lower for FaDu cells than for Det562 cells in two separate experiments (only one set is shown). On Det562 cells, CI values were about 1 for most combinations. CI value for Det562 cells at 0.001 uM/1Gy and at >0.06 uM are not included in the graph because the values are >10 and would have made smaller values harder to see. On FaDu cells, CI values were below 1 at concentrations of 0.03 or lower, were about 1 for 0.06 uM drug, and were over 1 at higher concentrations.
The growth inhibitory effects of Bouvardin with ionizing radiation (IR) were evaluated using a modified tetrazolium salt (MTT) assay. In the MTT assay, 1,000 to 2,000 viable cells were plated in 100 uL of growth medium in 96-well plates (Corning, Ithaca, N.Y.). Following an overnight incubation, drug was added in varying concentrations and the plates were irradiated on the same day (co-treatment) or 24 hr later (pre-treatment) and incubated for 6 to 7 days. The tetrazolium salt was added at a concentration of 0.4 mg/mL to each well following the 6- to 7-day treatment. The plates were incubated with the salt for 4 hours at 37° C. At 4 hours, the medium was aspirated off, leaving the dark blue formazan product at the bottom of the wells. The reduced MTT product was solubilized by adding […] of 0.2 N HCl in 75% isopropanol, 23% MilliQ water to each well. Thorough mixing was done using a Titertek multichannel pipetman. The absorbency of each well was measured using an automated plate reader (Molecular Devices, Sunnyvale, Calif.). All experiments were done in triplicate.

FaDu cells = experiment: CellTiter-Glo Luminescent Cell Viability Assay, Bouvardin with Taxol, FaDu; format: cell-based, human
Protocol: “Combination Index” computation. Combination Indices were calculated using CalcuSyn software (Biosoft), which uses the method of Chou and Talalay. This method first computes drug-induced effect using the Hill Equation: where E is the measured effect; C is the drug concentration; Emax is the full range of drug effect, usually at or near 100%; IC50 is the drug concentration producing the median effect of 50%; and n is the curve shape parameter describing the steepness of the concentration-effect relationship. The Chou and Talalay method then linearizes the Hill Equation by logarithmic transformation as: where fu is the fraction of cells left unaffected after drug exposure, fa is the fraction of cells affected by the exposure, C is the drug concentration used, Cm is the concentration to achieve the median effect, and n is the curve shape parameter. Cm and n are equivalent to IC50 and n, respectively, in the Hill Equation. The values of n (obtained from the slope), nlog(Cm) (obtained from the absolute value of the intercept), and, therefore, Cm are obtained by plotting log(fu−1−1) versus log(C). […]
The growth inhibitory effects of Bouvardin with Taxol were evaluated using CellTiter-Glo® Luminescent Cell Viability Assay (Promega G7570). […] Luminescence of each well was measured using an automated plate reader.

Question: How did the “interaction of Bouvardin with IR” value (Det562 cells) turn out when `COc1ccc(C[C@H]2C(=O)N[C@H](C)C(=O)N(C)[C@@H]3C(=O)N(C)[C@@H](Cc4ccc(O)c(c4)Oc4ccc(cc4)[C@H]3O)C(=O)N[C@@H](C)C(=O)N[C@H](C)C(=O)N2C)cc1` (stereo in doubt) [Bouvardin, bouvardin] was run?
Answer: a wide range of effects, synergistic to antagonistic

Question: What about the “CI value, Bouvardin with IR” value (Det562 cells; 0.001 uM/1Gy) of the same compound?
Answer: > 10

Question: What about the “CI value, Bouvardin with IR” value (Det562 cells; at >0.06 uM) of the same compound?
Answer: > 10

Question: And the “interaction of Bouvardin with IR” value (Det562 cells; listed as bouvardin)?
Answer: synergizes with ionizing radiation

Question: What about the “CI values, Bouvardin with IR” value (Det562 cells; most combinations) of the same compound?
Answer: about 1

Question: What about the “Bouvardin concentration up to which synergy was seen when combined with taxol” value (FaDu cells; Det562 and FaDu (FIG. 18)) of the same compound?
Answer: up to 0.3 μM

Question: What about the “interaction of Bouvardin with Taxol” value (FaDu cells; FaDu) of the same compound?
Answer: synergy with Taxol over a wide range of concentrations
